Values quoted from earlier work in patent US20110003837A1, “MODIFIED RELEASE FORMULATIONS OF HMG COA REDUCTASE INHIBITORS” (LUPIN LIMITED, priority 2008, published 2011).
Read-outs that look alike come from different tables or passages of the source.

Tests used:
HMG-CoA reductase = biological target: T1, HMG-CoA reductase (Homo sapiens, UniProt P04035)
T1 sequence (P04035 1-888): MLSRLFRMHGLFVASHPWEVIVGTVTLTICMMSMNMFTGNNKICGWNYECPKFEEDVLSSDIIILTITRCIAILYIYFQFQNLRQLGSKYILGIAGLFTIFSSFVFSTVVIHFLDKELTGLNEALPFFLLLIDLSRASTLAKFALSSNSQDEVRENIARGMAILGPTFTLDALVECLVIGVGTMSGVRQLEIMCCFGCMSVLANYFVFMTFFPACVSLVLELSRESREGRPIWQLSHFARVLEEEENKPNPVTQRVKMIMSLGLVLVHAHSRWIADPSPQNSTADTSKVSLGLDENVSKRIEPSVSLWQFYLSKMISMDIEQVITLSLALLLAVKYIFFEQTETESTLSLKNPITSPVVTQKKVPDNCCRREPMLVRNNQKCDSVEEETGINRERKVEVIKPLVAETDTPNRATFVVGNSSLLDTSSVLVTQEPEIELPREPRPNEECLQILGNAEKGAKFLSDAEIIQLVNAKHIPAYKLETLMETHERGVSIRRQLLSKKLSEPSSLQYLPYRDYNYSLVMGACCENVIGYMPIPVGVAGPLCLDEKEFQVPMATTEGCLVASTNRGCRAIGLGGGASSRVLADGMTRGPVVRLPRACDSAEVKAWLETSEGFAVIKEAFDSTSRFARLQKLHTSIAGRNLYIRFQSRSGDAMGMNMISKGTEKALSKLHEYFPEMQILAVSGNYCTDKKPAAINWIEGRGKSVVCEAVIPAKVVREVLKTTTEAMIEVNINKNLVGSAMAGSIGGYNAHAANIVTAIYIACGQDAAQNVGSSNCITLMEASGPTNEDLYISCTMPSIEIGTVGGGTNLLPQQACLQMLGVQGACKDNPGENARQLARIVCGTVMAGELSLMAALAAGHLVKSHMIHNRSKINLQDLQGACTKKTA

[1] = in words
[2] = 40 mg daily, clinical trials
[3] = in vivo
[4] = U.S. Pharmacopeia (2002)

- Share of the inhibitory activity of rosuvastatin due to the parent compound (HMG-CoA reductase): 90%
- Stability in acidic environments like that found in the stomach [1]: stable in acidic environments
- Patients with drug levels greater than 50 ng/ml (40 mg): 2%
- Patients with drug levels greater than 50 ng/ml (80 mg): 33%
- Absorbed dose extracted by the liver [3]: up to 90%
- Clearance through biliary excretion [3]: 90%
- Elimination half-life (t½) [3]: 20 h
- Excreted in the urine [3]: 10%
- Solubility class [4]: sparingly soluble
SMILES: CC(C)c1nc(N(C)S(C)(=O)=O)nc(-c2ccc(F)cc2)c1/C=C/[C@@H](O)C[C@@H](O)CC(=O)O (single isomer, unassigned) [rosuvastatin]
- Plasma level at which muscle and or renal toxicity developed (plasma): more than 50 ng/ml
- LDL-C reduction [2]: up to 63%
